Where two headings read alike, the source gives them in different places.
Columns and labels:
A2780cisR [1] = assay: Cytotoxicity in cisplatin-resistant A2780cisR (Example 9); type: cell-based, human
Protocol: (§1) Relative to the parental line, the A2780cisR subline is known to have elevated GSH levels, an increased level of repair of DNA-cisplatin adducts, and a decreased ability to uptake cisplatin (M. Smellie, et al., Br. J. Cancer, 1994, 70, 48).
(§2) The results, which were obtained by incubating the cells with the compounds for 96 hours at 37° C., and assessing the cell number using Sulforhodamine B, are presented in the table below: […]

[2] = tested on: human ovarian carcinoma cell line A2780; assay: Cytotoxicity in A2780 (Example 9); type: cell-based; settings: read-out: IC50 A2780
Protocol: as §1, §2

calf thymus DNA = assay: DNA helix melting temperature assay; type: binding; settings: [PBD]:[DNA] ratio of 1:5, calf thymus DNA
Protocol: The first assay, which is described in G. B. Jones, et al., Anti-Cancer Drug Des., 1990, 5, 249, which is incorporated herein by reference, determines the effect of the test compound on the helix melting temperature of DNA. This assay is designed to give an indication of the strength and extent of cross-linking of the DNA strands by the test compound (i.e. a measure of the stabilisation of the DNA upon ligand binding).
The melting temperature was determined for a 1:5 molar ratio of [ligand] [DNA], where the calf thymus DNA concentration is […] in aqueous sodium phosphate buffer (10 mM sodium phosphate+1 mM EDTA, pH 7.00±0.01). For calf thymus DNA at pH 7.00±0.01, the melting temperature is 67.83±0.06° C. (mean value from 30 separate determinations).

COLO 205 = assay: NCI in vitro cytotoxicity screen; type: cell-based; settings: Homo sapiens, COLO 205, 48 h, read-out: LC50
Protocol: (§3) The National Cancer Institute (NCI), Bethesda, Md., USA has available an in vitro cytotoxicity screen which consists of approximately 60 human tumour cell lines against which compounds are tested at a minimum of five concentrations each differing 10-fold. A 48 hour continuous exposure protocol is used, where cell viability or growth is estimated with an SRB protein assay.
(§4) The test compounds were evaluated against approximately 60 human tumour cell lines. The NCI screening procedures were described in detail by Monks and co-workers (Monks, A et al., Journal of the National Cancer Institute, 1991, 83, 757). Briefly, cell suspensions were diluted according to the particular cell type and the expected target cell density (5000-40,000 cells per well based on cell growth characteristics), and added by pipette (100 μL) into 96-well microtitre plates. The cells were allowed a preincubation period of 24 hours at 37° C. for stabilisation. Dilutions at twice the intended test concentration were added at time zero in 100 μL aliquots to the wells. The test compounds were evaluated at five 10-fold dilutions (10^−4, 10^−5, 10^−6, 10^−7 and 10^−[…]). The test compounds were incubated for 48 hours in 5% CO2 atmosphere and 100% humidity. The cells were then assayed using the sulphorhodamine B assay. A plate reader was used to read the optical densities and a microcomputer processed the readings into LC50 values, which is the dosage required to kill half of the cells.

KM12 = assay: NCI in vitro cytotoxicity screen; type: cell-based; settings: Homo sapiens, KM12, 48 h, read-out: LC50
Protocol: as §3, §4

NCI-H460 = assay: NCI in vitro cytotoxicity screen; type: cell-based; settings: Homo sapiens, NCI-H460, 48 h, read-out: LC50
Protocol: as §3, §4

HCC-2998 = assay: NCI in vitro cytotoxicity screen; type: cell-based; settings: Homo sapiens, HCC 2998, 48 h, read-out: LC50
Protocol: as §3, §4

UACC-62 = assay: NCI in vitro cytotoxicity screen; type: cell-based; settings: Homo sapiens, UACC-62, 48 h, read-out: LC50
Protocol: as §3, §4

SNB-75 = assay: NCI in vitro cytotoxicity screen; type: cell-based; settings: Homo sapiens, SNB-75, 48 h, read-out: LC50
Protocol: as §3, §4

MALME-3M = assay: NCI in vitro cytotoxicity screen; type: cell-based; settings: Homo sapiens, Malme-3M, 48 h, read-out: LC50
Protocol: as §3, §4

CH1 = assay: Ovarian carcinoma cytotoxicity assay; type: cell-based; settings: Homo sapiens
Protocol: (§5) Compounds of the invention (and Anthramycin as a comparison) were evaluated for their cytotoxic activity in ovarian cell lines by Dr Lloyd R. Kelland's group at The Institute of Cancer Research, Sutton, UK. The five cell lines investigated were SKOV-3, A2780/A2780cisR and CH1/CH1cisR (cis R denotes that the cell line is resistant to cisplatin).
(§6) Single viable cells were seeded in growth medium (160 μL) in […] microtitre plates and allowed to attach overnight. […] After 96 hours, the medium was removed and the remaining cells fixed by exposure to 10% trichloroacetic acid on ice for 30 minutes. The wells were then washed 3-4 times with tap water, air dried overnight and treated with 100 μL of sulphorhodamine B (0.4%) dissolved in 1% acetic acid. Staining was allowed to continue for 10-15 minutes, then the wells were washed 3-4 times with 1% acetic acid, air dried and then added to Tris base (100 μL of 10 mM). Plates were then shaken and absorbance readings at 540 nm were determined using a plate reader. By using the Quattro-Pro software package, the IC50 values were calculated from plots of concentration versus percentage absorbance (compared with 8 untreated wells).

SKOV-3 = assay: Ovarian carcinoma cytotoxicity assay; type: cell-based; settings: Homo sapiens
Protocol: as §5, §6

CH1cisR = assay: Ovarian carcinoma cytotoxicity assay; type: cell-based; settings: Homo sapiens, CH1cisR
Protocol: as §5, §6

A2780 = assay: Ovarian carcinoma cytotoxicity assay; type: cell-based, human; settings: Homo sapiens
Protocol: as §5, §6

A2780cisR [3] = assay: Ovarian carcinoma cytotoxicity assay; type: cell-based, human; settings: Homo sapiens, A2780cisR
Protocol: as §5, §6

NCI-H522 = assay: NCI in vitro cytotoxicity screen; type: cell-based; settings: Homo sapiens, NCI-H522, 48 h, read-out: LC50
Protocol: as §3, §4

SK-MEL-2 = assay: NCI in vitro cytotoxicity screen; type: cell-based; settings: Homo sapiens, SK-MEL-2, 48 h, read-out: LC50
Protocol: as §3, §4

RXF 393 = assay: NCI in vitro cytotoxicity screen; type: cell-based; settings: Homo sapiens, RXF 393, 48 h, read-out: LC50
Protocol: as §3, §4

[4] = tested on: approximately 60 human tumour cell lines; assay: NCI in vitro cytotoxicity screen, whole panel; type: cell-based; settings: all panels
Protocol: as §3
as §4, with “The test compounds were incubated for 48 hours in 5% CO2 atmosphere and 100% humidity. The cells were then assayed using the sulphorhodamine B assay.” left out

UACC-257 = assay: NCI in vitro cytotoxicity screen; type: cell-based; settings: Homo sapiens, UACC-257, 48 h, read-out: LC50
Protocol: as §3, §4

SK-MEL-28 = assay: NCI in vitro cytotoxicity screen; type: cell-based; settings: Homo sapiens, SK-MEL-28, 48 h, read-out: LC50
Protocol: as §3, §4

MDA-MB-435 = assay: NCI in vitro cytotoxicity screen; type: cell-based; settings: Homo sapiens, MDA-MB-435, 48 h, read-out: LC50
Protocol: as §3, §4

SF-539 = assay: NCI in vitro cytotoxicity screen; type: cell-based; settings: Homo sapiens, SF-539, 48 h, read-out: LC50
Protocol: as §3, §4

MDA-N = assay: NCI in vitro cytotoxicity screen; type: cell-based; settings: Homo sapiens, 48 h, read-out: LC50
Protocol: as §3, §4

M14 = assay: NCI in vitro cytotoxicity screen; type: cell-based; settings: Homo sapiens, M14, 48 h, read-out: LC50
Protocol: as §3, §4

[5] = CH1, 96 hours, sulphorhodamine B, read-out: IC50 CH1
[6] = SK-OV-3, 96 hours, sulphorhodamine B, read-out: IC50 Skov3
[7] = cisplatin-resistant, 96 hours, sulphorhodamine B, read-out: IC50 CH1cisR
[8] = A2780, 96 hours, sulphorhodamine B, read-out: IC50 A2780
[9] = cisplatin-resistant, 96 hours, sulphorhodamine B, read-out: IC50 A2780cisR

| SMILES | CC50 (COLO 205) [nM] | CC50 (UACC-62) [nM] | CC50 (MALME-3M) [nM] | IC50 (CH1; [5]) [nM] | IC50 (SKOV-3; [6]) [nM] | IC50 (CH1cisR; [7]) [nM] | IC50 (A2780; [8]) [nM] | IC50 (A2780cisR [3]; [9]) [nM] | CC50 (SK-MEL-2) [µM] | CC50 (RXF 393) [nM] | CC50 (MDA-MB-435) [nM] | also measured |
| --- | --- | --- | --- | --- | --- | --- | --- | --- | --- | --- | --- | --- |
| N.N.[Cl][Pt][Cl] [Cisplatin, reference compound] | – | – | – | – | – | – | – | – | – | – | – | IC50 (A2780cisR [1]; cisplatin-resistant subline, 96 hours at 37° C., Sulforhodamine B, read-out: IC50 A2780cis^a): 8400 nM; IC50 ([2]; 96 hours at 37° C., Sulforhodamine B): 265 nM |
| COc1cc2c(cc1OCCCOc1cc3c(cc1OC)C(=O)N1CCC[C@@H]1C=N3)N=C[C@@H]1CCCN1C2=O [DSB-120, reference compound] | – | – | – | – | – | – | – | – | – | – | – | IC50 (A2780cisR [1]; Homo sapiens, A2780cisR, 96 h, read-out: IC50 A2780cisR): 210 nM; IC50 (A2780cisR [1]; Homo sapiens, A2780cisR, 96 h, read-out: IC50 A2780cis^a): 210 nM; Induced ΔTa after incubation at 37° C. for 0 h (calf thymus DNA; pH 7.00, 0 h): 10.2 °C; Induced ΔTa after incubation at 37° C. for 4 h (calf thymus DNA; pH 7.00, 4 h): 13.1 °C; Induced ΔTa after incubation at 37° C. for 18 h (calf thymus DNA; pH 7.00, 18 h): 15.1 °C; IC50 ([2]; Homo sapiens, A2780, 96 hours): 7.2 nM |
| COC(=O)CC1=CN2C(=O)c3cc(OC)c(OCc4ccccc4)cc3N=C[C@@H]2C1 [UP2003 (24)] | 1400 | 700 | 700 | 16 | 12 | 40 | 14.5 | 120 | – | – | – | CC50 (KM12): 9.5 µM; CC50 (NCI-H460): 7.6 µM; CC50 (HCC-2998): 5.2 µM; CC50 (SNB-75): 6 µM |
| COc1ccc(-c2ccc3c(c2)C(=O)N2CCC[C@H]2C=N3)cc1 [UP2027 (138), (11aS)-7-(4′-Methoxyphenyl)-1,2,3,11a-tetrahydro-5H-pyrrolo[2,1-c]-[1,4]benzodiazepin-5-one] | – | – | – | 1350 | 1700 | 1150 | 560 | 1550 | 9.5 | 6600 | – | CC50 (NCI-H522): 8 µM |
| O=C1c2cc(-c3cccc([N+](=O)[O-])c3)ccc2N=C[C@@H]2CCCN12 [UP2029 (140), (11aS)-7-(3′-Nitrophenyl)-1,2,3,11a-tetrahydro-5H-pyrrolo[2,1-c][1,4]benzodiazepin-5-one] | – | – | – | 22500 | 1400 | 14000 | 34500 | 32000 | – | – | – | cytotoxic activity (LC50 below 10 μM) [4]: completely abolished cytotoxic activity |
| C=C1C[C@H]2C=Nc3cc(OC)c(OC)cc3C(=O)N2C1 [UP2064 (74), (11aS)-7,8-Dimethoxy-2-methylidene-1,2,3,11a-tetrahydro-5H-pyrrolo[2,1-c][1.4]benzodiazepin-5-one] | 600 | 600 | 900 | 66 | 390 | 84 | 150 | 360 | 1.7 | 800 | 2300 | CC50 (UACC-257): 7.4 µM; CC50 (SK-MEL-28): 2.6 µM |
| COC(=O)CC1=CN2C(=O)c3cc(OC)c(OC)cc3N=C[C@@H]2C1 [UP2065 (42)] | 4000 | – | 4700 | 115 | 450 | 150 | 360 | 460 | 3.5 | 800 | 800 | – |
| COc1cc2c(cc1OCc1ccccc1)N=C[C@@H]1CC(=O)CN1C2=O [UP2067 (172)] | 5800 | 3000 | 7400 | – | – | – | – | – | – | 800 | 800 | CC50 (SF-539): 6.8 µM; CC50 (MDA-N): 600 nM; CC50 (NCI-H522): 5 µM; CC50 (SK-MEL-28): 6.6 µM; CC50 (SNB-75): 5.4 µM; CC50 (M14): 800 nM; IC50 (CH1; CH1, 96 h, read-out: IC50 CH1, 96 hours, sulphorhodamine B): 165 nM; IC50 (SKOV-3; SK-OV-3, 96 h, read-out: IC50 Skov3, 96 hours, sulphorhodamine B): 540 nM; IC50 (CH1cisR; 96 h, read-out: IC50 CH1cisR, cisplatin-resistant, 96 hours, sulphorhodamine B): 180 nM; IC50 (A2780; A2780, 96 h, read-out: IC50 A2780, 96 hours, sulphorhodamine B): 115 nM; IC50 (A2780cisR [3]; 96 h, read-out: IC50 A2780cisR, cisplatin-resistant, 96 hours, sulphorhodamine B): 390 nM |
